From patent US5436260A, “Angiotensin II receptor antagonists” (Warner-Lambert Company, priority 1994, dated 1995)
pIC50: −log10 of the molar value. Where a name gives a salt, the structure may show the parent alone.

These compounds were tested against T1, AT1 receptor (Rattus norvegicus, UniProt P25095) (assay: [^3 H]angiotensin II binding to rat liver membranes (AT1 test)). Conditions: inhibition of [^3 H]angiotensin II binding.
T1 construct: rat liver membranes; from tissue; host or cells: rat liver membranes
T1 sequence (P25095 1-359): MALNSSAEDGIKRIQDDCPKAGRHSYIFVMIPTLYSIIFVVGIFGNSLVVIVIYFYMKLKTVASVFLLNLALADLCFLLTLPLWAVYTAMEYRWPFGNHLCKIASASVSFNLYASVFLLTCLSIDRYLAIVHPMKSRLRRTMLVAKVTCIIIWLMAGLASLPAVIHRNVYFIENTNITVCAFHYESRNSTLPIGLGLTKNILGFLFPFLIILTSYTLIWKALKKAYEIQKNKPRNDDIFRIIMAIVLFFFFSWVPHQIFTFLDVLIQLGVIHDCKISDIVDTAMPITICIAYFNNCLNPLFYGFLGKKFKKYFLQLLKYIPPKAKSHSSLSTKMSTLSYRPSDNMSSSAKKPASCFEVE
Procedure: The compounds of Formula I or Ia are antagonists of angiotensin II. Dudley, D. T., et al, Molecular Pharmacology 1990;38:370-377 reported the existence of 2 subclasses of angiotensin II binding sites in rabbit adrenal gland and uterus and in the rat liver which differ in their tissue distribution and affinity for various peptide and nonpeptide ligands. Thus, the compounds of Formula I or Ia were tested for their ability to inhibit [^3 H]angiotensin II binding to rat liver membranes (AT1 test) according to the methods described by Dudley, D. T., et al, Molecular Pharmacology 1990;38:370-7. […] It is well established that compounds which antagonize the effect of angiotensin II at the AT1 receptor have value for treatment of hypertension and heart failure.

| SMILES | pIC50 |
| --- | --- |
| CCCCc1ncc(/C=C2/C(=O)N(CCCC)C(=O)N2Cc2sccc2C)n1Cc1ccc(C(=O)OC)cc1 [Example 72, Methyl Z-4-[[2-butyl-5-[[1-butyl-3-[(3-methyl-2-thienyl)methyl]-2,5-dioxo-4-imidazolidinylidene]methyl]-1H-imidazol-1-yl]methyl]benzoate hydrochloride] | 7.62 |
| CCCCc1ncc(/C=C2/C(=O)N(CCCC)C(=O)N2Cc2csc(Br)c2)n1Cc1ccc(C(=O)OC)cc1 [Example 81, Methyl Z-4-[[5-[[3-[(5-bromo-3-thienyl)methyl]-1-butyl-2,5-dioxo-4-imidazolidinylidene]methyl]-2-butyl-1H-imidazol-1-yl]methyl]benzoate monohydrochloride] | 7.60 |
| CCCCCCN1C(=O)N(CCCC)C(=O)/C1=C/c1cnc(CCCC)n1Cc1ccc(C(=O)OC)cc1 [Example 35, Methyl Z-4-[[2-butyl-5-[(1-butyl-3-hexyl-2,5-dioxo-4-imidazolidinylidene)methyl]-1H-imidazol-1-yl]methyl]benzoate monohydrochloride] | 7.40 |
| CCCCc1ncc(/C=C2\C(=O)NC(=O)N2C)n1Cc1ccc(-c2ccccc2-c2nnn[nH]2)cc1 [Example 94, E-5-[[2-butyl-3-[[2'-(1H-tetrazol-5-yl)[1,1'-biphenyl]-4-yl]methyl]-3H-imidazol-4-yl]methylene]1-methyl-2,4-imidazolidinedione] | 8.07 |
| CCCCc1ncc(/C=C2/C(=O)NC(=O)N2CCCC)n1Cc1ccc(NS(=O)(=O)C(F)(F)F)cc1 [Example 71a, Z-N-[4-[[2-butyl-5-[(3-butyl-2,5-dioxo-4-imidazolidinylidene)methyl]-1H-imidazol-1-1yl]methyl]phenyl]-1,1,1,-trifluoromethanesulfonamide] | 8.49 |
| CCCCc1ncc(/C=C2/C(=O)N(CCCC)C(=O)N2Cc2csc(C)n2)n1Cc1ccc(C(=O)O)cc1 [Example 59, Z-4-[[2-butyl-5-[[1-butyl-3-[(2-methyl-4thiazolyl)methyl]-2,5-dioxo-4-imidazolidinylidene]methyl]-1H-imidazol-1-yl]methyl]benzoic acid] | 8.92 |
| CCCCc1ncc(/C=C2\C(=O)NC(=O)N2CCCC)n1Cc1ccc(C2(C(=O)OC)CCCCC2)cc1 [Example 88b, Methyl E-1-[4-[[2-butyl-5-[[3-butyl-2,5dioxo-4-imidazolidinylidene]methyl]-1H-imidazol-1-yl]methyl]phenyl]cyclohexanecarboxylate] | 6.28 |
| CCCCc1ncc(/C=C2/C(=O)N(CCCC)C(=O)N2Cc2nn[nH]n2)n1Cc1ccc(C(=O)OC)cc1 [Example 44, Methyl Z-4-[[2-butyl-5-[[1-butyl-2,5-dioxo-3-(1H-tetrazol-5-ylmethyl)-4-imidazolidinylidene]methyl]-1H-imidazol-1-yl]methyl]benzoate monohydrochloride] | 7.38 |
| CCCCc1ncc(/C=C2/C(=O)N(CCCC)C(=O)N2Cc2cccs2)n1Cc1ccc(C(=O)OC)cc1 [Example 23, Methyl Z-4-[[2-butyl-5-[[1-butyl-2,5-dioxo-3-(2-thienylmethyl)-4-imidazolidinylidene]methyl]-1H-imidazol-1-yl]methyl]benzoate monohydrochloride] | 8.47 |
| CCCCc1ncc(/C=C2/C(=O)NC(=O)N2CCCCO)n1Cc1ccc(C(=O)OC)cc1 [Example 17b, (Z)-4-[[2-Butyl-5-[[2,5-dioxo-3-(4-hydroxybutyl)-4-imidazolidinylidene]methyl]-1-H-imidazole-1-yl]methyl]benzoic acid, methyl ester] | 7.31 |
| CCCCc1ncc(/C=C2/C(=O)N(CCCC)C(=O)N2Cc2csc(N)n2)n1Cc1ccc(C(=O)OC)cc1 [Example 62, Methyl Z-4-[[2-butyl-5-[[1-butyl-3-[(2-amino-4-thiazolyl)methyl]-2,5-dioxo-4-imidazolidinylidene]methyl]-1H-imidazol-1-yl]methyl]benzoate dihydrochloride] | 8.92 |
| CCCCCCN1C(=O)N/C(=C\c2cnc(CCCC)n2Cc2ccc(C(=O)OC)cc2)C1=O [Example 47, Methyl ZX-4-[[2-butyl-5-[(1-hexyl-2,5-dioxo-4-imidazolidinylidene)methyl]-1H-imidazol-1-yl]m,ethyl]benzoate] | < 6.00 |
| CCCCc1ncc(/C=C2\C(=O)NC(=O)N2CCC(C)C)n1Cc1ccc(C(=O)O)cc1 [Example 2a] | 8.03 |
| CCCCc1ncc(/C=C2\C(=O)NC(=O)N2CCCC)n1Cc1ccc(C(=O)OC)cc1 [Example 15a, (E)-4-[[2-Butyl-5-[(3-butyl-2,5-dioxo-4-imidazolidinylidene)methyl]-1H-imidazole-1-yl]methyl]benzoic acid, methyl ester] | 7.96 |
| CCCCc1ncc(/C=C2/C(=O)N(CCCC)C(=O)N2Cc2ccc(-c3ccccc3)cc2)n1Cc1ccc(C(=O)OC)cc1 [Example 102, Methyl Z-4-[[5-[[3-[(1,1'-biphenyl)-4-ylmethyl]-1-butyl-2,5-dioxo-4-imidazolidinylidene]methyl]-2-butyl-1H-imidazol-1-yl]methyl]benzoate] | < 6.00 |
| CCCCc1ncc(/C=C2/C(=O)N(CCCC)C(=O)N2Cc2cccs2)n1Cc1ccc(C(=O)O)cc1 [Example 25] | 8.19 |
| CCCCc1ncc(/C=C2/C(=O)NC(=O)N2CCCC)n1Cc1ccc(C(=O)OC)cc1 [Example 15b, (Z)-4-[[2-Butyl-5-[(3-butyl-2,5-dioxo-4-imidazolidinylidene)methyl]-1H-imidazole-1-yl]methyl]benzoic acid, methyl ester] | 7.99 |
| CCCCc1ncc(/C=C2/C(=O)N(CCCC(F)(F)F)C(=O)N2Cc2csc(C)n2)n1Cc1ccc(C(=O)OC)cc1 [Example 111, Methyl Z-4-[[2-Butyl-5-[[3-[(2-methyl-4-thiazoyl)methyl]-2,5-dioxo-1-(4,4,4-trifluorobutyl)-4-imidazolidinylidene]methyl]-1H-imidazol-1-yl]methyl]benzoate dihydrochloride] | 7.15 |
| CCCCc1ncc(/C=C2\C(=O)NC(=O)N2CCCC)n1Cc1ccc(-c2nn[nH]n2)cc1 [Example 76b, E-1-Butyl-5-[[2-butyl-3-[[4-(1H-tetrazol-5-yl)phenyl]methyl]-3H-imidazol-4-yl]methylene]-2,4-imidazolidinedione] | 8.61 |
| CCCCc1ncc(/C=C2/C(=O)N(CCCC)C(=O)N2CCc2ccccc2)n1Cc1ccc(C(=O)OC)cc1 [Example 41, Methyl Z-4-[[2-butyl-5-[[1-butyl-2,5-dioxo-3-(2-phenylethyl)-4-imidazolidinylidene]methyl]-1H-imidazol-1-yl]methyl]benzoate mono hydrochloride] | 7.51 |
| CCCCCCN1C(=O)/C(=C/c2cnc(CCCC)n2Cc2ccc(C(=O)OC)cc2)N(Cc2ccccc2)C1=O [Example 50, Methyl Z-4-[[2-butyl-5-[[1-hexyl-2,5-dioxo-3-(phenylmethyl)-4-imidazolidinylidene]methyl]-1H-imidazol-1-yl]methyl]benzoate monohydrochloride] | 7.58 |
| CCCCc1ncc(/C=C2\C(=O)NC(=O)N2CCCC)n1Cc1ccc(C(=O)OC)cc1Cl [Example 87b] | 8.14 |
| CCCCc1ncc(/C=C2/C(=O)N(CCCC)C(=O)N2Cc2cccc[n+]2[O-])n1Cc1ccc(C(=O)OC)cc1 [Example 57, Methyl Z-4-[[2-butyl-5-[[1-butyl-2,5-dioxo-3-[(2-pyridinyl-N-oxide)-methyl]-4-imidazolidinylidene]methyl]-1H-imidazol-1-yl]methyl]benzoate] | 6.59 |
| CCCCc1ncc(/C=C2\C(=O)NC(=O)N2CCCCO)n1Cc1ccc(C(=O)OC)cc1 [Example 17a] | 7.01 |
| CCCCc1ncc(/C=C2/C(=O)NC(=O)N2Cc2ccc(Cl)cc2)n1Cc1ccc(C(=O)OC)cc1 [Example 64, Methyl Z-4-[[2-butyl-5-[[3-[(4-chlorophenyl)methyl]-2,5-dioxo-4-imidazolidinylidene]methyl]-1H-imidazol-1-yl]methyl]benzoate monohydrochloride] | 8.37 |
| CCCCc1ncc(/C=C2/C(=O)N(CCCC)C(=O)N2Cc2ccc(C(=O)OC)cc2)n1Cc1ccc(C(=O)OC)cc1 [Example 37, Methyl Z-4-[[2-butyl-5-[[1-butyl-3-[[4-(methoxycarbonyl)phenyl]methyl]-2,5-dioxo-4-imidazolidinylidene]methyl]-1H-imidazol-1-yl]methyl]benzoate monohydrochloride] | 7.84 |
| CCCCc1ncc(/C=C2/C(=O)N(CCCC)C(=O)N2CCc2cccs2)n1Cc1ccc(C(=O)OC)cc1 [Example 79, Methyl Z-4-[[2-butyl-5-[[1-butyl-2,5-dioxo-3-[2(2-thienyl)ethyl]-4-imidazolidinylidene]methyl]-1H-imidazol-1-yl]methyl]benzoate monohydrochloride] | 7.84 |
| CCCCc1ncc(/C=C2\NC(=O)N(CCCC)C2=O)n1Cc1ccc(C(=O)OC)cc1 [Example 32a, Methyl Z-4-[[2-butyl-5-[(1-butyl-2,5-dioxo-4-imidazolidinylidene)methyl]-1H-imidazol-1-yl]methyl]benzoate monohydrochloride] | 6.75 |
